Where only a bound is given, the exact number is not on record here.

The experiment has as its target T1, SARM1 (50-724) (Homo sapiens, UniProt Q6SZW1).
T1 sequence (Q6SZW1 50-724): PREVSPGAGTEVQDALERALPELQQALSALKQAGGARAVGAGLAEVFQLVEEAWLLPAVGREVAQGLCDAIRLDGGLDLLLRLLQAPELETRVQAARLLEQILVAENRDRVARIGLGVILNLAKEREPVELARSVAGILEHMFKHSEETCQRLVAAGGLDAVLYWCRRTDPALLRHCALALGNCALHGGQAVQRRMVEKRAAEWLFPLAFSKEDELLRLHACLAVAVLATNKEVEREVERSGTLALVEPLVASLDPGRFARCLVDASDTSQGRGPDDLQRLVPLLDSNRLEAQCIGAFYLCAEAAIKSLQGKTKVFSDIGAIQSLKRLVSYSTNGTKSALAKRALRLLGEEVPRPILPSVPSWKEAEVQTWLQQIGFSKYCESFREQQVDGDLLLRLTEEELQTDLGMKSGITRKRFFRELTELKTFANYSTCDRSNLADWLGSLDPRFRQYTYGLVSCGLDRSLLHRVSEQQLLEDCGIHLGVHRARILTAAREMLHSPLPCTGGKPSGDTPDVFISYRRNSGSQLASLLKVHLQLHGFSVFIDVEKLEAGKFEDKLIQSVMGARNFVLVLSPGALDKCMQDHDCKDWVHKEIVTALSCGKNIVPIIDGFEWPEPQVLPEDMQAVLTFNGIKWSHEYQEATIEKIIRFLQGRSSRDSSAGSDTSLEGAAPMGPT
Nature of the experiment: biochemical.
Experimental: An enzymatic assay was performed in a 384-well plate using Dulbecco's phosphate-buffered saline (PBS) as the reaction buffer. […] The reaction was initiated by adding a mixture of 200 μM nicotinamide mononucleotide (NMN) as activator and 100 μM NAD^+ as substrate. After 1 h of incubation at room temperature, the reaction was terminated with 10 times volume of 70% acetonitrile, then centrifuged at 3800 rpm for 10 min.
Turning to `CC1N(C(=O)CC(N)=O)c2cc(NS(=O)(=O)c3cccc(Cl)c3Cl)ccc2C1(C)C` (racemic) [Compound 329, 3-(6-((2,3-dichlorophenyl)sulfonamido)-2,3,3-trimethylindolin-1-yl)-3-oxopropanamide], the IC50 was under 100 nM.

As to `Cc1nn(CC(N)=O)c(=O)c2nc(NC(C)c3nn(C)c(Cl)c3Cl)ccc12` (racemic) [Compound 330, 2-(2-((1-(4,5-dichloro-1-methyl-1H-pyrazol-3-yl)ethyl)amino)-5-methyl-8-oxopyrido[2,3-d]pyridazin-7(8H)-yl)acetamide], the half-inhibitory concentration (IC50) is under 100 nM.

As to `Cc1nn(C(=O)c2ccncc2)c2cc(NC(C)c3nc(Cl)c(Cl)s3)ccc12` (racemic) [Compound 331, (6-((1-(4,5-dichlorothiazol-2-yl)ethyl)amino)-3-methyl-1H-indazol-1-yl)(pyridin-4-yl)methanone], the concentration for half-maximal inhibition (IC50) is under 100 nM.

For the compound `Cc1nn(CC(N)=O)c2cc(NC(C)c3nc(Cl)c(Cl)s3)cc(F)c12` (racemic) [Compound 337, 2-(6-((1-(4,5-dichlorothiazol-2-yl)ethyl)amino)-4-fluoro-3-methyl-1H-indazol-1-yl)acetamide], the IC50 was under 100 nM.

`CC(Nc1cc(F)c2nc[nH]c(=O)c2c1)c1nsc(Cl)c1Cl` (racemic) [Compound 338, 6-((1-(4,5-dichloroisothiazol-3-yl)ethyl)amino)-8-fluoroquinazolin-4(3H)-one] returned a 50% inhibitory concentration (IC50) of under 100 nM.

On to `Cc1c2ccc(NC(C)c3snc(Cl)c3Cl)cc2nn1CC(N)=O` (racemic) [Compound 341, 2-(6-((1-(3,4-dichloroisothiazol-5-yl)ethyl)amino)-3-methyl-2H-indazol-2-yl)acetamide], for which the IC50 was under 100 nM.

Compound `Cc1n[nH]c(=O)c2cc(NC(C)c3scc(Cl)c3Cl)ccc12` (racemic) [Compound 342, 7-((1-(3,4-dichlorothiophen-2-yl)ethyl)amino)-4-methylphthalazin-1(2H)-one] showed a half-inhibitory concentration (IC50) of under 100 nM.

Consider `Cc1nc(C(C)Nc2ccc3c(C)n(CC(N)=O)nc3c2)sc1Cl` (racemic) [Compound 343, 2-(6-((1-(5-chloro-4-methylthiazol-2-yl)ethyl)amino)-3-methyl-2H-indazol-2-yl)acetamide], for which the IC50 is under 100 nM.

`CC(Nc1nc2ccccc2s1)c1nc(Cl)c(Cl)s1` (racemic) [Compound 344, N-(1-(4,5-dichlorothiazol-2-yl)ethyl)benzo[d]thiazol-2-amine]: the half-inhibitory concentration (IC50) is under 100 nM.

Take `CC(Nc1ccc2snc(C(N)=O)c2c1)c1nc(Cl)c(Cl)s1` (racemic) [Compound 345, 5-[1-(4,5-dichlorothiazol-2-yl)ethylamino]-1,2-benzothiazole-3-carboxamide]: the IC50 is under 100 nM.

`CC(Nc1ccc2snc(C(=O)N3CC(O)C3)c2c1)c1nc(Cl)c(Cl)s1` (racemic) [Compound 346, (5-((1-(4,5-dichlorothiazol-2-yl)ethyl)amino)benzo[d]isothiazol-3-yl)(3-hydroxyazetidin-1-yl)methanone]: the concentration for half-maximal inhibition (IC50) is under 100 nM.

In turn, `CC(Nc1ccc2nc[nH]c(=O)c2n1)c1c(F)ccc(Cl)c1Cl` (racemic) [Compound 349, 6-((1-(2,3-dichloro-6-fluorophenyl)ethyl)amino)pyrido[3,2-d]pyrimidin-4(3H)-one] registered an IC50 of under 100 nM.

Compound `Cc1c(C#N)sc(C(C)Nc2ccc3c(C)n[nH]c(=O)c3c2)c1Cl` (racemic) [Compound 350, 4-chloro-3-methyl-5-(1-((1-methyl-4-oxo-3,4-dihydrophthalazin-6-yl)amino)ethyl)thiophene-2-carbonitrile] registered an IC50 of 100 to 500 nM.

Compound `CC(Nc1cc(F)c2ncn(CC(N)=O)c(=O)c2c1)c1ccc(F)c(Cl)c1Cl` (racemic) [Compound 351, 2-(6-((1-(2,3-dichloro-4-fluorophenyl)ethyl)amino)-8-fluoro-4-oxoquinazolin-3(4H)-yl)acetamide] displayed an IC50 of under 100 nM.

`CC(Nc1cc(F)c2nc[nH]c(=O)c2c1)c1nccc(Cl)c1Cl` (racemic) [Compound 352, 6-((1-(3,4-dichloropyridin-2-yl)ethyl)amino)-8-fluoroquinazolin-4(3H)-one]: the IC50 is under 100 nM.

`CC(Nc1ccc2cc[nH]c(=O)c2c1)c1csc(Cl)c1Cl` (racemic) [Compound 353, 7-((1-(4,5-dichlorothiophen-3-yl)ethyl)amino)isoquinolin-1(2H)-one] yielded an IC50 of under 100 nM.

In turn, `CC(Nc1cc(F)c2nc[nH]c(=O)c2c1)c1cncc(Cl)c1Cl` (racemic) [Compound 354, 6-((1-(4,5-dichloropyridin-3-yl)ethyl)amino)-8-fluoroquinazolin-4(3H)-one] showed a 50% inhibitory concentration (IC50) of under 100 nM.

Turning to `CC(Nc1ccc2c(C(F)F)n(CC(N)=O)nc2c1)c1nc(Cl)c(Cl)s1` (racemic) [Compound 355, 2-(6-((1-(4,5-dichlorothiazol-2-yl)ethyl)amino)-3-(difluoromethyl)-2H-indazol-2-yl)acetamide], the IC50 was under 100 nM.

With `CC(Nc1ccc2c(Cl)n(CC(N)=O)nc2c1)c1nc(Cl)c(Cl)s1` (racemic) [Compound 361, 2-(3-chloro-6-((1-(4,5-dichlorothiazol-2-yl)ethyl)amino)-2H-indazol-2-yl)acetamide], the concentration for half-maximal inhibition (IC50) was under 100 nM.

`Cc1c2c(F)cc(NC(C)c3c(F)ccc(Cl)c3Cl)cc2nn1CC(N)=O` (racemic) [Compound 364, 2-(6-((1-(2,3-dichloro-6-fluorophenyl)ethyl)amino)-4-fluoro-3-methyl-2H-indazol-2-yl)acetamide]: the half-inhibitory concentration (IC50) is under 100 nM.

The compound `CC(Nc1ccc2c(C(F)F)n(CC(N)=O)nc2c1)c1c(F)ccc(Cl)c1Cl` (racemic) [Compound 365, 2-(6-((1-(2,3-dichloro-6-fluorophenyl)ethyl)amino)-3-(difluoromethyl)-2H-indazol-2-yl)acetamide] registered a concentration for half-maximal inhibition (IC50) of under 100 nM.

The compound `CC(Nc1ccc2c(C(F)(F)F)n(CC(N)=O)nc2c1)c1nc(Cl)c(Cl)s1` (racemic) [Compound 366, 2-(6-((1-(4,5-dichlorothiazol-2-yl)ethyl)amino)-3-(trifluoromethyl)-2H-indazol-2-yl)acetamide] came in with a half-inhibitory concentration (IC50) of under 100 nM.

Compound `[2H]C(C)(Nc1ccc2c(C)n(CC(N)=O)nc2c1)c1nc(Cl)c(Cl)s1` (racemic) [Compound 376, 2-(6-((1-(4,5-dichlorothiazol-2-yl)ethyl-1-d)amino)-3-methyl-2H-indazol-2-yl)acetamide] yielded an IC50 of under 100 nM.

Compound `Cc1sc(C(C)Nc2ccc3c(C)n(CC(N)=O)nc3c2)nc1Cl` (racemic) [Compound 379, 2-(6-((1-(4-chloro-5-methylthiazol-2-yl)ethyl)amino)-3-methyl-2H-indazol-2-yl)acetamide] showed an IC50 of under 100 nM.

`CC(Nc1ccc2nc[nH]c(=O)c2n1)c1ccc(F)c(Cl)c1Cl` (racemic) [Compound 384, 6-((1-(2,3-dichloro-4-fluorophenyl)ethyl)amino)pyrido[3,2-d]pyrimidin-4(3H)-one] gave an IC50 of 100 to 500 nM.

With `Cc1c2c(F)cc(NC(C)c3nc(Cl)c(Cl)s3)cc2nn1CC(N)=O` (racemic) [Compound 389, 2-(6-((1-(4,5-dichlorothiazol-2-yl)ethyl)amino)-4-fluoro-3-methyl-2H-indazol-2-yl)acetamide], the IC50 is under 100 nM.

The compound `Cc1cc(F)cc(C(C)Nc2ccc3c(c2)C(=O)NCC3)c1` (racemic) [Example 93, 7-((1-(3-fluoro-5-methylphenyl)ethyl)amino)-3,4-dihydroisoquinolin-1(2H)-one] returned an IC50 of 500 to 1000 nM.

Turning to `CC(Nc1ccc2c(c1)C(=O)NCC2)c1ccc(Cl)c(F)c1` (racemic) [Example 96, 7-((1-(4-chloro-3-fluorophenyl)ethyl)amino)-3,4-dihydroisoquinolin-1(2H)-one], the half-inhibitory concentration (IC50) was over 1000 nM.

With `CC(Nc1ccc2c(c1)C(=O)NCC2)c1cc(Cl)cc(Cl)n1` (racemic) [Example 97, 7-((1-(4,6-dichloropyridin-2-yl)ethyl)amino)-3,4-dihydroisoquinolin-1(2H)-one], the IC50 was 500 to 1000 nM.

For the compound `CC(Nc1ccc2c(c1)C(=O)NCC2)c1cc(Cl)nc(Cl)c1` (racemic) [Example 98, 7-((1-(2,6-dichloropyridin-4-yl)ethyl)amino)-3,4-dihydroisoquinolin-1(2H)-one], the half-maximal inhibitory concentration (IC50) was over 1000 nM.

`Cc1cccc(C(C)Nc2ccc3c(c2)C(=O)NCC3)c1F` (racemic) [Example 99, 7-((1-(2-fluoro-3-methylphenyl)ethyl)amino)-3,4-dihydroisoquinolin-1(2H)-one] gave a half-inhibitory concentration (IC50) of over 1000 nM.

`CC(Nc1ccc2c(c1)C(=O)NCC2)c1cccc(Cl)c1Cl` (racemic) [Example 100, 7-((1-(2,3-dichlorophenyl)ethyl)amino)-3,4-dihydroisoquinolin-1(2H)-one] had an IC50 of 100 to 500 nM.

On to `CC(Nc1ccc2c(c1)C(=O)NCC2)c1cc(F)cc(Cl)c1` (racemic) [Example 101, 7-((1-(3-chloro-5-fluorophenyl)ethyl)amino)-3,4-dihydroisoquinolin-1(2H)-one], for which the IC50 fell in the range of 100 to 500 nM.

In turn, `CC(Nc1ccc2cc[nH]c(=O)c2c1)c1cccc(Cl)c1Cl` (racemic) [Example 103, 7-((1-(2,3-dichlorophenyl)ethyl)amino)isoquinolin-1(2H)-one] showed an IC50 of under 100 nM.

(Values after patent publication US20250320184A1 (SIRONAX LTD., priority 2022, published 2025).)
